This assay deals with human CXCR3A (Homo sapiens (Human), UniProt P49682). Description: FLIPR assay. The conditions noted are these: CHO-K1 cells expressing the human CXCR3A coupled to Galpha(16); CXCL10 agonist 20 nM; Fluo-4-AM fluorescence; mean values if determined several times. Format: cell-based. On the procedure: The bioactivity of compounds is tested in a fluorometric imaging plate reader (FLIPR: Molecular Devices) using engineered CHO-K1 cells expressing the human CXCR3A coupled to a G protein (Galpha(16)). Cells are plated the day prior to bioassay in F12 medium supplemented with 10% FBS and G418 and hygromycin antibiotics to maintain recombinant selection. At the day of bioassay, cells are washed and dye loaded for one hour with Fluo-4-AM (Invitrogen) in Hanks Balanced Salt Solution (Invitrogen), buffered with 20 mM Hepes at pH 7.4 and sodium bicarbonate (0.015%), containing 5 mM probenecid. […] Cells are washed free of excess dye and 60 microliter of wash buffer is added. Stock solutions of test compounds are made up at a concentration of 10 mM in DMSO, and serially diluted in dilution buffer to concentrations required for inhibition dose response curves. After a 10 minute incubation period at 37° C., 10 microliters of each compound dilution are transferred from a compound plate to the plate containing the recombinant cells in the FLIPR instrument according to the manufacturer's instructions. Following basal readings, 10 microliter CXCL10 agonist at a concentration of 20 nM (from Peprotech) is added, again using the FLIPR instrument. Changes in fluorescence are monitored before and after addition of the test compounds. Emission peak values above base level after CXCL10 addition are exported after base line subtraction. The program XLfit is used to fit the data to a single site dose response curve and to calculate IC50 values.
Chain of human CXCR3A (P49682 whole entry): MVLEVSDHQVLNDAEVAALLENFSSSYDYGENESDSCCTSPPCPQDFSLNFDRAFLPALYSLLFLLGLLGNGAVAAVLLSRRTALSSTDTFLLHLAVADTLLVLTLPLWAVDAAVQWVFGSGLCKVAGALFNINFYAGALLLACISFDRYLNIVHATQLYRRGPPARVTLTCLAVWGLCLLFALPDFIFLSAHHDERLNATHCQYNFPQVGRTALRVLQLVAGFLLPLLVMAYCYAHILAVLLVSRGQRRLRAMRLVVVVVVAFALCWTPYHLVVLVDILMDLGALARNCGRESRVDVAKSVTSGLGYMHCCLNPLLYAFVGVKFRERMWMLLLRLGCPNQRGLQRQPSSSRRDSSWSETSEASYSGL
As for `C[C@@H]1CN(c2scnc2-c2nc3cc(Cl)c(C(F)(F)F)cc3[nH]2)CCN1C(=O)Cn1cnc2cccnc21` [Example 93, 1-{(R)-4-[4-(5-Chloro-6-trifluoromethyl-1H-benzoimidazol-2-yl)-thiazol-5-yl]-2-methyl-piperazin-1-yl}-2-imidazo[4,5-b]pyridin-3-yl-ethanone], the IC50 turned out to be 1 nM.

For the compound `Cc1c(Cl)ccc2[nH]c(-c3ncsc3N3CCN(C(=O)Cn4cnc5cccnc54)[C@H](C)C3)nc12` [Example 94, 1-{(R)-4-[4-(5-Chloro-4-methyl-1H-benzoimidazol-2-yl)-thiazol-5-yl]-2-methyl-piperazin-1-yl}-2-imidazo[4,5-b]pyridin-3-yl-ethanone], the IC50 turned out to be 0.5 nM.

`C[C@@H]1CN(c2scnc2-c2nc3c(C(F)(F)F)cccc3[nH]2)CCN1C(=O)Cn1cnc2cccnc21` [Example 95, 2-Imidazo[4,5-b]pyridin-3-yl-1-{(R)-2-methyl-4-[4-(4-trifluoromethyl-1H-benzoimidazol-2-yl)-thiazol-5-yl]-piperazin-1-yl}-ethanone] returned an IC50 of 4 nM.

`C[C@@H]1CN(c2scnc2-c2nc3c(F)cccc3[nH]2)CCN1C(=O)Cn1cnc2cccnc21` [Example 97, 1-{(R)-4-[4-(4-Fluoro-1H-benzoimidazol-2-yl)-thiazol-5-yl]-2-methyl-piperazin-1-yl}-2-imidazo[4,5-b]pyridin-3-yl-ethanone] had an IC50 of 2 nM.

Consider `C[C@@H]1CN(c2scnc2-c2nc3ccccc3n2C)CCN1C(=O)Cn1cnc2cccnc21` [Example 98, 2-Imidazo[4,5-b]pyridin-3-yl-1-{(R)-2-methyl-4-[4-(1-methyl-1H-benzoimidazol-2-yl)-thiazol-5-yl]-piperazin-1-yl}-ethanone], for which the IC50 was determined as 9 nM.

The compound `Cn1c(=O)n(CC(=O)N2CCN(c3scnc3-c3nc4cc(OCCO)ccc4[nH]3)CC2)c2ccccc21` [Example 101, 1-[2-(4-{4-[5-(2-Hydroxy-ethoxy)-1H-benzoimidazol-2-yl]thiazol-5-yl}-piperazin-1-yl)-2-oxo-ethyl]-3-methyl-1,3-dihydro-benzoimidazol-2-one] returned an IC50 of 14 nM.

As to `COCCOc1ccc2[nH]c(-c3ncsc3N3CCN(C(=O)Cn4c(=O)n(C)c5ccccc54)CC3)nc2c1` [Example 102, 1-[2-(4-{4-[5-(2-Methoxy-ethoxy)-1H-benzoimidazol-2-yl]-thiazol-5-yl}-piperazin-1-yl)-2-oxo-ethyl]-3-methyl-1,3-dihydro-benzoimidazol-2-one], the half-inhibitory concentration (IC50) stood at 14 nM.

Consider `O=C(CN1CCCc2ccccc21)N1CCN(c2scnc2-c2nc3ccccc3[nH]2)CC1` [Example 105, 1-{4-[4-(1H-Benzoimidazol-2-yl)-thiazol-5-yl]-piperazin-1-yl}-2-(3,4-dihydro-2H-quinolin-1-yl)-ethanone], for which the 50% inhibitory concentration (IC50) is 89 nM.

`O=C(CN1CCOc2ccccc21)N1CCN(c2scnc2-c2nc3ccccc3[nH]2)CC1` [Example 106, 1-{4-[4-(1H-Benzoimidazol-2-yl)-thiazol-5-yl]-piperazin-1-yl}-2-(2,3-dihydro-benzo[1,4]oxazin-4-yl)-ethanone] came in with an IC50 of 99 nM.

For `O=C1CCN(CC(=O)N2CCN(c3scnc3-c3nc4ccccc4[nH]3)CC2)c2ccccc21` [Example 107, 1-(2-{4-[4-(1H-Benzoimidazol-2-yl)-thiazol-5-yl]-piperazin-1-yl}-2-oxo-ethyl)-2,3-dihydro-1H-quinolin-4-one], the IC50 came out at 78 nM.

`O=C(Cn1ccc2cccc(F)c21)N1CCN(c2scnc2-c2nc3ccccc3[nH]2)CC1` [Example 108, 1-{4-[4-(1H-Benzoimidazol-2-yl)-thiazol-5-yl]-piperazin-1-yl}-2-(7-fluoro-indol-1-yl)-ethanone] returned a concentration for half-maximal inhibition (IC50) of 4 nM.

Consider `O=C(Cc1cccnc1)N1CCN(c2scnc2-c2nc3ccccc3[nH]2)CC1` [Example 110, 1-{4-[4-(1H-Benzoimidazol-2-yl)-thiazol-5-yl]-piperazin-1-yl}-2-pyridin-3-yl-ethanone], for which the IC50 is 487 nM.

As for `COc1ccc(CC(=O)N2CCN(c3scnc3-c3nc4ccccc4[nH]3)CC2)c(F)c1` [Example 111, 1-{4-[4-(1H-Benzoimidazol-2-yl)-thiazol-5-yl]-piperazin-1-yl}-2-(2-fluoro-4-methoxy-phenyl)-ethanone], the IC50 is 280 nM.

`Cn1c(=O)n(CC(=O)N2CCN(c3scnc3-c3nc4c(O)cccc4[nH]3)CC2)c2ccccc21` [Example 112, 1-(2-{4-[4-(4-Hydroxy-1H-benzoimidazol-2-yl)-thiazol-5-yl]-piperazin-1-yl}-2-oxo-ethyl)-3-methyl-1,3-dihydro-benzoimidazol-2-one] registered a half-maximal inhibitory concentration (IC50) of 10 nM.

As to `C[C@@H]1CN(c2scnc2-c2nc3ccccc3[nH]2)CCN1C(=O)Cc1ccc2ccccc2c1` [Example 117, 1-{(R)-4-[4-(1H-Benzoimidazol-2-yl)-thiazol-5-yl]-2-methyl-piperazin-1-yl}-2-naphthalen-2-yl-ethanone], the half-maximal inhibitory concentration (IC50) came out at 75 nM.

Take `C[C@@H]1CN(c2scnc2-c2nc3ccccc3[nH]2)CCN1C(=O)Cc1ccc2cccnc2c1` [Example 120, 1-{(R)-4-[4-(1H-Benzoimidazol-2-yl)-thiazol-5-yl]-2-methyl-piperazin-1-yl}-2-quinolin-7-yl-ethanone]: the IC50 was found to be 16 nM.

`C[C@@H]1CN(c2scnc2-c2nc3ccccc3[nH]2)CCN1C(=O)Cc1ccc2nccnc2c1` [Example 121, 1-{(R)-4-[4-(1H-Benzoimidazol-2-yl)-thiazol-5-yl]-2-methyl-piperazin-1-yl}-2-quinoxalin-6-yl-ethanone] yielded an IC50 of 42 nM.

For `C[C@@H]1CN(c2scnc2-c2nc3ccccc3[nH]2)CCN1C(=O)Cc1ccc2c(c1)NC(=O)CO2` [Example 122, 6-(2-{(R)-4-[4-(1H-Benzoimidazol-2-yl)-thiazol-5-yl]-2-methyl-piperazin-1-yl}-2-oxo-ethyl)-4H-benzo[1,4]oxazin-3-one], the IC50 was 152 nM.

In turn, `C[C@@H]1CN(c2scnc2-c2nc3ccccc3[nH]2)CCN1C(=O)Cc1cccc2[nH]ccc12` [Example 123, 1-{(R)-4-[4-(1H-Benzoimidazol-2-yl)-thiazol-5-yl]-2-methyl-piperazin-1-yl}-2-(1H-indol-4-yl)-ethanone] yielded an IC50 of 69 nM.

As to `C[C@@H]1CN(c2scnc2-c2nc3ccccc3[nH]2)CCN1C(=O)Cc1c[nH]c2ccccc12` [Example 124, 1-{(R)-4-[4-(1H-Benzoimidazol-2-yl)-thiazol-5-yl]-2-methyl-piperazin-1-yl}-2-(1H-indol-3-yl)-ethanone], the IC50 turned out to be 10 nM.

`C[C@@H]1CN(c2scnc2-c2nc3ccccc3[nH]2)CCN1C(=O)Cc1cn(C)c2ccccc12` [Example 125, 1-{(R)-4-[4-(1H-Benzoimidazol-2-yl)-thiazol-5-yl]-2-methyl-piperazin-1-yl}-2-(1-methyl-1H-indol-3-yl)-ethanone] displayed a concentration for half-maximal inhibition (IC50) of 71 nM.

With `COc1ccc2[nH]cc(CC(=O)N3CCN(c4scnc4-c4nc5ccccc5[nH]4)C[C@H]3C)c2c1` [Example 126, 1-{(R)-4-[4-(1H-Benzoimidazol-2-yl)-thiazol-5-yl]-2-methyl-piperazin-1-yl}-2-(5-methoxy-1H-indol-3-yl)-ethanone], the half-inhibitory concentration (IC50) worked out at 68 nM.

The compound `C[C@@H]1CN(c2scnc2-c2nc3ccccc3[nH]2)CCN1C(=O)Cc1c[nH]c2ccc(Cl)cc12` [Example 127, 1-{(R)-4-[4-(1H-Benzoimidazol-2-yl)-thiazol-5-yl]-2-methyl-piperazin-1-yl}-2-(5-chloro-1H-indol-3-yl)-ethanone] registered a half-inhibitory concentration (IC50) of 490 nM.
